Read-outs that look alike come from different tables or passages of the source.
Legend:
VSV-nLuc = experiment: microbe, parasite or virus in culture; assay type: cell-based; conditions: Vesicular stomatitis virus, Vero C1008, read-out: Antiviral potency (EC50 [µM]) VSV
in vitro [1] = conditions: African green monkey
SINV-GLuc = experiment: microbe, parasite or virus in culture; assay type: cell-based; conditions: Sindbis virus, Vero C1008; VeroE6 cells; read-out: Antiviral potency (EC50 [µM]) SINV
HPIV3-nLuc = experiment: microbe, parasite or virus in culture; assay type: cell-based; conditions: Human respirovirus 3, Vero C1008; VeroE6 cells; read-out: Antiviral potency (EC50 [µM]) HPIV3
VEEV-TC83-nLuc = experiment: microbe, parasite or virus in culture; assay type: cell-based; conditions: Venezuelan equine encephalitis virus, Vero C1008, read-out: Antiviral potency (EC50 [µM]) VEEV
CHIKV replicon = experiment: microbe, parasite or virus in culture; conditions: Chikungunya virus, U2OS, read-out: Antiviral potency (EC50 [µM]) CHKV replicon
[2] = system: CHIKV-nLuc (181/25 strain); experiment: microbe, parasite or virus in culture; assay type: cell-based, Chikungunya virus; conditions: Chikungunya virus, 384-well format, read 20 h after infection, read-out: Normalized percent inhibition in primary screen
RSV A2-L19F = experiment: microbe, parasite or virus in culture; assay type: cell-based; conditions: human respiratory syncytial virus; Hep-2 cells; read-out: Antiviral potency (EC50 [µM]) RSV
SARS-CoV-2-nLuc = experiment: microbe, parasite or virus in culture; assay type: cell-based; conditions: Severe acute respiratory syndrome coronavirus 2; VeroE6-TMPRSS2 cells; read-out: Antiviral potency (EC50 [µM]) SARS-CoV-2
in vitro [3] = conditions: human
MAYV = experiment: microbe, parasite or virus in culture; assay type: cell-based, Mayaro virus; conditions: Mayaro virus, U2OS, read-out: EC50 virus production, MAYV
[4] = biological target: T1, SFV trans-replicase (P1234) (Semliki forest virus, UniProt P08411); experiment: Trans-replicase assay, SFV; assay type: cell-based; conditions: 100 µM, U-2 OS, 20 h
T1 construct: expression of the P1234 polyprotein drives replication of a reporter RNA template; expressed in transfected cells; host or cells: U-2 OS
Description: (§1) U-2 OS cells were seeded at 75,000 cells per well in 24-well plates and cultured for 24 h. Cells were then co-transfected with 250 ng of plasmid encoding template RNA and 250 ng of plasmid encoding P1234 WT ([72], [73]), using Lipofectamine LTX with PLUS reagent (ThermoFisher Scientific) following the manufacturer’s instructions. After 4 h of post-transfection, medium containing 100 µM of compounds or DMSO was added to the cells. Cells were then incubated for 20 h, lysed, and GLuc activity was quantified using the Dual-Luciferase Reporter Assay System (Promega). Luciferase activities were normalized to those of the DMSO-treated controls.

[5] = biological target: T2, ONNV trans-replicase (P1234) (O'nyong-nyong virus, UniProt P13886); experiment: Trans-replicase assay, ONNV; assay type: cell-based; conditions: 100 µM, U-2 OS, 20 h
T2 construct: expression of the P1234 polyprotein drives replication of a reporter RNA template; expressed in transfected cells; host or cells: U-2 OS
Description: as §1

CHIKV-nLuc [6] = assay type: cell-based, Chikungunya virus; conditions: 20 µM, U-2 OS, reporter read at 24 h
[7] = biological target: T3, SINV trans-replicase (P1234) (Sindbis virus, UniProt P03317); experiment: Trans-replicase assay, SINV; assay type: cell-based; conditions: 100 µM, U-2 OS, 20 h
T3 construct: expression of the P1234 polyprotein drives replication of a reporter RNA template; expressed in transfected cells; host or cells: U-2 OS
Description: as §1

CHIKV = experiment: Selection for viral resistance by serial passage in U-2 OS cells, whole-genome sequencing; assay type: cell-based, Chikungunya virus; conditions: passage 1, MOI 1 FFU/cell, 16 h
[8] = biological target: T4, MAYV trans-replicase (P1234) (Mayaro virus, UniProt Q8QZ73); experiment: Trans-replicase assay, MAYV; assay type: cell-based; conditions: 100 µM, U-2 OS, 20 h
T4 construct: expression of the P1234 polyprotein drives replication of a reporter RNA template; expressed in transfected cells; host or cells: U-2 OS
Description: as §1

[9] = biological target: VEEV trans-replicase (P1234) (Venezuelan equine encephalitis virus, UniProt P36328); assay type: cell-based
[10] = biological target: EEEV trans-replicase (P1234) (Eastern equine encephalitis virus, UniProt Q306W6); assay type: cell-based
RRV = experiment: microbe, parasite or virus in culture; assay type: cell-based, Ross River virus; conditions: Ross River virus, U2OS, read-out: EC50 virus production, RRV
CHIKV-nLuc [11] = experiment: microbe, parasite or virus in culture; assay type: cell-based, Chikungunya virus; conditions: Chikungunya virus, U2OS; MOI 0.1 FFU/cell, 24 hpi, in-house synthesized compound; read-out: EC50 CHIKV-nLuc, U-2 OS
[12] = biological target: T5, CHIKV trans-replicase (P1234) (Chikungunya virus, UniProt Q8JUX6); experiment: Trans-replicase assay, CHIKV; assay type: cell-based; conditions: 100 µM, U-2 OS, 20 h
T5 construct: expression of the P1234 polyprotein drives replication of a reporter RNA template; expressed in transfected cells; host or cells: U-2 OS
Description: as §1

[13] = Cytotoxicity assay (PrestoBlue, 24 h) in U-2 OS cells; assay type: cell-based, Human; conditions: human, U-2 OS cells
[14] = biological target: T6, BFV trans-replicase (P1234) (Barmah forest virus, UniProt P87515); experiment: Trans-replicase assay, BFV; assay type: cell-based; conditions: 100 µM, U-2 OS, 20 h
T6 construct: expression of the P1234 polyprotein drives replication of a reporter RNA template; expressed in transfected cells; host or cells: U-2 OS
Description: as §1

ONNV = experiment: organism not typed; assay type: cell-based, o'nyong-nyong virus; conditions: U2OS, read-out: EC50 virus production, ONNV
CHIKV 181/25 = experiment: Virus yield dose-response in U-2 OS cells, CHIKV; assay type: cell-based, Chikungunya virus; conditions: Chikungunya virus, U2OS
SINV = experiment: microbe, parasite or virus in culture; assay type: cell-based, Sindbis virus; conditions: Sindbis virus, U2OS, read-out: EC50 virus production, SINV
[15] = biological target: T7, RRV trans-replicase (P1234) (Ross river virus, UniProt P13887); experiment: Trans-replicase assay, RRV; assay type: cell-based; conditions: 100 µM, U-2 OS, 20 h
T7 construct: expression of the P1234 polyprotein drives replication of a reporter RNA template; expressed in transfected cells; host or cells: U-2 OS
T7 sequence (P13887 1-2479 limits assumed): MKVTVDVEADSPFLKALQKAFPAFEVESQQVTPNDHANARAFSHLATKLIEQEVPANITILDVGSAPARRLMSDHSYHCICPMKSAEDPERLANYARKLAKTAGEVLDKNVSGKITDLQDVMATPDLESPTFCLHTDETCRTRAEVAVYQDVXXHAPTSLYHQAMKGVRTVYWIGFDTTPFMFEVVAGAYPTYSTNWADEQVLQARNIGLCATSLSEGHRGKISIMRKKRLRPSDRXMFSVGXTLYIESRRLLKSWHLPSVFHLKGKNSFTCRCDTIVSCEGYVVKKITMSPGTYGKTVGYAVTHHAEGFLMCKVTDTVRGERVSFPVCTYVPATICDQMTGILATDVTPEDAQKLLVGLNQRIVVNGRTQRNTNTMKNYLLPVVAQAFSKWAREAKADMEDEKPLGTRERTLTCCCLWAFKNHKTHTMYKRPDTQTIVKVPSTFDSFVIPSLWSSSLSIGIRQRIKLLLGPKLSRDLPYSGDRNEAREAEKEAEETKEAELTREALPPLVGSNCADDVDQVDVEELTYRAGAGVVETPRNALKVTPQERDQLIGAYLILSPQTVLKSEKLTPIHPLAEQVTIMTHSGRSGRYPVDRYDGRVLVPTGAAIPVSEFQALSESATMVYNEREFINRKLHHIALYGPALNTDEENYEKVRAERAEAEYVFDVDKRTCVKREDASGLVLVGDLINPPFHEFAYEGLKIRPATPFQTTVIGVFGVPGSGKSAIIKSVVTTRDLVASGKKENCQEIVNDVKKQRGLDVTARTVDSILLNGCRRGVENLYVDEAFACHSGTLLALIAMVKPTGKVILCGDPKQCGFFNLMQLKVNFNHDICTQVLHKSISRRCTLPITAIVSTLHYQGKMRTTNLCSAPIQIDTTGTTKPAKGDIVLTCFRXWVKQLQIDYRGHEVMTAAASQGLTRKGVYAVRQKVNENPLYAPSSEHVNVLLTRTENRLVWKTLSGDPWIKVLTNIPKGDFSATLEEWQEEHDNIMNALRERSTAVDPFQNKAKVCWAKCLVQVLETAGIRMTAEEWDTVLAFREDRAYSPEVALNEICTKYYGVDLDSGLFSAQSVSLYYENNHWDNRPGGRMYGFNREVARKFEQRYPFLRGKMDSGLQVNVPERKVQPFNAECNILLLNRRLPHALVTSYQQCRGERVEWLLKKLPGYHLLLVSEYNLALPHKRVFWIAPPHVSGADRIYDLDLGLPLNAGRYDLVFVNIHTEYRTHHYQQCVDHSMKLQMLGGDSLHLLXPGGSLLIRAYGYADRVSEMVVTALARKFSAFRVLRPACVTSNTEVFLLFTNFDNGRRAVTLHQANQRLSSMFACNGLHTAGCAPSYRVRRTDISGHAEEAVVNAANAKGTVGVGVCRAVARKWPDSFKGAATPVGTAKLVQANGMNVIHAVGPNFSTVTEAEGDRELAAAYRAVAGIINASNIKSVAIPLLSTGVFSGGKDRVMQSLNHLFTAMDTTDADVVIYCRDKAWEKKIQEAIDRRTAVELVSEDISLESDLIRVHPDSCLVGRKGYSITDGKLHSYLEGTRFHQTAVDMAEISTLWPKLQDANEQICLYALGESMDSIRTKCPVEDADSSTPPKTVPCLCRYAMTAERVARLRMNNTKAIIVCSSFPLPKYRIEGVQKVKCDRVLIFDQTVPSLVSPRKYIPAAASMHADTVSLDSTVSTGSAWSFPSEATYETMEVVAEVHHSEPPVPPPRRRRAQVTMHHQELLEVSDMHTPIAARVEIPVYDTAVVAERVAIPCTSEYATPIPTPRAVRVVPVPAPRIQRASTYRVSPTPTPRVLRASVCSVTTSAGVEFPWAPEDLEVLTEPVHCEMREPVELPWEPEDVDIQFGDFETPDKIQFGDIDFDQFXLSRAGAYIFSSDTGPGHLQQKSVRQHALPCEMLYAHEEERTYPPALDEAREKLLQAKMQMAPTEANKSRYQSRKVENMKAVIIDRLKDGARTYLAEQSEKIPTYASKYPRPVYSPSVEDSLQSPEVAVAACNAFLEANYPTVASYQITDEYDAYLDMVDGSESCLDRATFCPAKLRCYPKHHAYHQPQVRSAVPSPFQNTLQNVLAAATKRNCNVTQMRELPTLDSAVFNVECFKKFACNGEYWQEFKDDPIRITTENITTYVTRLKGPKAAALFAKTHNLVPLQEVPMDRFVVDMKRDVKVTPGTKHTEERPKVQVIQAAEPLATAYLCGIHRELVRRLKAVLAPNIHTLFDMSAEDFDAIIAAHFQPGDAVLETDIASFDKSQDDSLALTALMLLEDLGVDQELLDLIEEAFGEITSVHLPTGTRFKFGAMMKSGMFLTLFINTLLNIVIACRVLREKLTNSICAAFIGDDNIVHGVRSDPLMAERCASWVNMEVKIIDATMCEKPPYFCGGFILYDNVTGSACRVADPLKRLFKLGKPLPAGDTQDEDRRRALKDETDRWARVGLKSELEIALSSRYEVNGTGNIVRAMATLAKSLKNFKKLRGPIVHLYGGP
T7 sequence (P13887 1-533 partner limits assumed): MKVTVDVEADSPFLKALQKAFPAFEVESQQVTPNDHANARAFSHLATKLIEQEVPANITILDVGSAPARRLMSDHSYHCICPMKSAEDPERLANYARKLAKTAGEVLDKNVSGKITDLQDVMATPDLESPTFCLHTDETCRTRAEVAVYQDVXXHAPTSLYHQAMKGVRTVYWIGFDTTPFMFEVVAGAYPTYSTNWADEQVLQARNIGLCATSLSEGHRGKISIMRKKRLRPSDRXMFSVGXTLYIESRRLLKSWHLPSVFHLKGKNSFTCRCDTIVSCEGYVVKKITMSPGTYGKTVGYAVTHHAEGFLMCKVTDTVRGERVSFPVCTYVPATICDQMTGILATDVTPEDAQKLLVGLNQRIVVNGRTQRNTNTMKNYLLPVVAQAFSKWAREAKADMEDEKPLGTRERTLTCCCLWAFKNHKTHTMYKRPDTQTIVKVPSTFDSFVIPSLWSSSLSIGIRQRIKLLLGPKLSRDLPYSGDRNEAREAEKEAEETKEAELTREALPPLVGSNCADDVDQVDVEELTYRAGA
T7 sequence (P13887 534-1331 partner limits assumed): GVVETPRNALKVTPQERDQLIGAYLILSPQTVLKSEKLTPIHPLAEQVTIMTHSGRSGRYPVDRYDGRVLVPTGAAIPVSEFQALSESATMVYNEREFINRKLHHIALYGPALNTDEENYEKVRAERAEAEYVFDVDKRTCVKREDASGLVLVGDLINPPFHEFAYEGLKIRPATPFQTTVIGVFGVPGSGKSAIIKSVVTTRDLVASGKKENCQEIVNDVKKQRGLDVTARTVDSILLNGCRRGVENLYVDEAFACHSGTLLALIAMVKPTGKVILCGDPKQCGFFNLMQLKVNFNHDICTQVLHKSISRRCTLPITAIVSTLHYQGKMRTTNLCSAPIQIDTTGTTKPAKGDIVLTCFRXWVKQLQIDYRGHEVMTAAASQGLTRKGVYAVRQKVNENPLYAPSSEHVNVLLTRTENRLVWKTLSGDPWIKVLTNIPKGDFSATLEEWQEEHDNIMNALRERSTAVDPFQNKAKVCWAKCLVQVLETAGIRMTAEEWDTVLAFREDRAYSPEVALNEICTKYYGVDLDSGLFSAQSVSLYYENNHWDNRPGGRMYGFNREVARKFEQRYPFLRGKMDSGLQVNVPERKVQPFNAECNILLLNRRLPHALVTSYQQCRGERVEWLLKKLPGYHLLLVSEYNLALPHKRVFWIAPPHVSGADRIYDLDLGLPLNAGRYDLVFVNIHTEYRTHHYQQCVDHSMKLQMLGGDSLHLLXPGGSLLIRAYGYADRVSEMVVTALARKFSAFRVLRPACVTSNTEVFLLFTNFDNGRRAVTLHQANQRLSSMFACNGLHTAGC
Description: as §1

CHIKV-nLuc [16] = experiment: microbe, parasite or virus in culture; assay type: cell-based, Chikungunya virus
[17] = Cytotoxicity assay (PrestoBlue, 24 h) in NHDF cells; assay type: cell-based, Human; conditions: human, NHDF cells
Description: NHDF cells were seeded at 10,000 cells per well in 24-well plates and cultured for 24 h. Cells were then treated with threefold serial dilutions of compounds starting at 500 µM and incubated for 24 h. DMSO was included as a negative control for normalization. Following treatment, cells were incubated with PrestoBlue reagent (ThermoFisher Scientific) for 1 h at 37°C, and fluorescence was measured using a PerkinElmer Victor X5 multilabel plate reader. The CC50 values were determined by normalized non-linear regression with a variable slope model in Prism (GraphPad).

SFV = experiment: microbe, parasite or virus in culture; assay type: cell-based, Semliki Forest virus; conditions: Semliki Forest virus, U2OS, read-out: EC50 virus production, SFV

## CCNc1cc(C)nc(N2CCN(C(=O)c3cccc4ccccc34)CC2)n1 [GAP-1066658]
VSV-nLuc
  EC50: 60.9 µM
In vitro [1]
  CC50: 88.5 µM
SINV-GLuc
  EC50: > 100 µM
HPIV3-nLuc
  EC50: ~100 µM
VEEV-TC83-nLuc
  EC50: 75.8 µM
CHIKV replicon
  EC50: 0.61 µM
[2]
  inhibition at 5 µM: 95.4%
RSV A2-L19F
  EC50: > 100 µM
SARS-CoV-2-nLuc
  EC50: ~100 µM
In vitro [3]
  CC50: 61.5 µM

## Cn1nc(CN(C(=O)c2ccc(F)cc2)c2ccccc2)c2c1CCN(S(=O)(=O)Cc1ccccc1F)C2 [GAP-1081237]
VSV-nLuc
  EC50: 65.2 µM
In vitro [1]
  CC50: > 100 µM
SINV-GLuc
  EC50: 65.7 µM
HPIV3-nLuc
  EC50: 64.9 µM
VEEV-TC83-nLuc
  EC50: 10 µM
CHIKV replicon
  EC50: 12.4 µM
[2]
  inhibition at 5 µM: 80.2%
RSV A2-L19F
  EC50: > 10 µM
SARS-CoV-2-nLuc
  EC50: > 100 µM
In vitro [3]
  CC50: > 100 µM

## O=C(CN1C(=O)CNC1=O)NCc1n[nH]c2c1CCCCC2 [GAP-1173149, 2-(2,5-dioxoimidazolidin-1-yl)-N-(1,4,5,6,7,8-hexahydrocyclohepta[d]pyrazol-3-ylmethyl)acetamide]
MAYV
  EC50: > 100 µM
[4]
  Effect on RNA replication (GLuc) in trans-replicase assay, SFV: no significant effect
[5]
  Effect on RNA replication (GLuc) in trans-replicase assay, ONNV: suppressed replication
CHIKV-nLuc [6]
  Time-of-addition profile (stage of replication targeted): act on a stage after viral entry
[7]
  Effect on RNA replication (GLuc) in trans-replicase assay, SINV: no significant effect
VSV-nLuc
  EC50: > 100 µM
CHIKV
  Reduction of virus titers at P1 compared with DMSO-treated controls: 1 log
[8]
  Effect on RNA replication (GLuc) in trans-replicase assay, MAYV: no significant effect
[9]
  Effect on RNA replication (GLuc) in trans-replicase assay, VEEV: did not show significant VEEV inhibition
[10]
  Effect on RNA replication (GLuc) in trans-replicase assay, EEEV: effectively inhibited
In vitro [1]
  CC50: > 100 µM
SINV-GLuc
  EC50: > 100 µM
HPIV3-nLuc
  EC50: > 100 µM
RRV
  EC50: 10 ± 0.64 µM
CHIKV-nLuc [11]
  EC50: 13.6 ± 0.16 µM
[12]
  Effect on RNA replication (GLuc) in trans-replicase assay, CHIKV: suppressed replication
VEEV-TC83-nLuc
  EC50: 52.3 µM
[13]
  CC50 at 24 h: > 500 µM
[14]
  Effect on RNA replication (GLuc) in trans-replicase assay, BFV: effectively inhibited
CHIKV replicon
  EC50: 5.3 µM
ONNV
  EC50: 5.22 ± 1.11 µM
CHIKV 181/25; MOI 0.1, supernatant 24 hpi titered by FFA (Fig. 5), read-out: EC50 virus production, CHIKV
  EC50: 10.2 ± 0.95 µM
CHIKV 181/25; resistance study (Fig. 7), read-out: EC50 virus production, CHIKV WT
  EC50: 9.15 ± 1.62 µM
SINV
  EC50: > 100 µM
[15]
  Effect on RNA replication (GLuc) in trans-replicase assay, RRV: suppressed replication
[2]
  inhibition at 5 µM: 88.7%
RSV A2-L19F
  EC50: > 10 µM
SARS-CoV-2-nLuc
  EC50: > 100 µM
CHIKV-nLuc [16]; Chikungunya virus, NHDF, MOI 0.1 FFU/cell, 24 hpi, in-house synthesized compound
  EC50: 11.6 µM
CHIKV-nLuc [16]; NHDF cells
  selectivity index (SI = CC50/EC50): > 43
[17]
  CC50 at 24 h: > 500 µM
In vitro [3]
  CC50: > 100 µM
SFV
  EC50: > 100 µM

## CCNc1nc(C)cc(N2CCN(C(=O)c3cc(Cl)ccc3OC)CC2)n1 [GAP-1350926]
[2]
  inhibition at 5 µM: 82.1%

## CCNc1nc(C)cc(N2CCN(C(=O)c3ccccc3Br)CC2)n1 [GAP-1354666]
[2]
  inhibition at 5 µM: 82.5%

## CCNc1nc(C)cc(N2CCN(C(=O)c3ccccc3Cl)CC2)n1 [GAP-1358555]
[2]
  inhibition at 5 µM: 85.8%

## CCNc1nc(C)cc(N2CCN(C(=O)c3ccc(F)cc3Cl)CC2)n1 [GAP-1358964]
[2]
  inhibition at 5 µM: 91.6%

— publication PMC13288994, “Identification and characterization of novel chikungunya virus polymerase inhibitors” (Journal of Virology, 2026)
